From patent US9695155B2, “Herbicidal substituted pyrimidinyloxy benzene compounds” (E. I. DU PONT DE NEMOURS AND COMPANY, priority 2013, dated 2017)

Columns and labels:
johnsongrass [1] = experiment: Test C preemergence; format: in vivo, Sorghum halepense; settings: for Johnsongrass plant response rating: preemergence
Outline: (§1)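 Greenhouse herbicide screen. Pre: seeded loam/sand, sprayed at planting. Post: 1–4 leaf plants (2–18 cm) in peat-based mix. Formulation: solvent mixture + surfactant, non-phytotoxic. Readout: visual % control vs untreated, 13–15 d; dash = not tested.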

ragweed = experiment: Test C preemergence; format: in vivo, Ambrosia elatior; settings: for Ragweed plant response rating: preemergence
Outline: as §1

pigweed [2] = experiment: Test A postemergence; format: in vivo, Amaranthus retroflexus
Outline: (§2)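 Injury scores run from 0, no effect, to 100, complete control, judged by eye against untreated plants roughly 10 days after treatment. Chemicals carried a surfactant in a non-phytotoxic solvent and went onto loam–sand soil preemergence or onto one- to two-leaf seedlings postemergence.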

velvetleaf = experiment: Test C postemergence; format: in vivo, Abutilon theophrasti
Outline: as §1

corn = experiment: Test C postemergence; format: in vivo, Zea mays; settings: for Corn plant response rating / Plant response rating, Corn: scale 0 to 100 (0 no effect, 100 complete control)
Outline: as §1

giant foxtail [3] = experiment: Test C preemergence; format: in vivo, Setaria faberii; settings: for Foxtail, Giant plant response rating: preemergence; for Plant response rating, Foxtail, Giant: Preemergence, 31 g ai/ha, scale 0 to 100, 0 no effect, 100 complete control
Outline: as §1

oilseed rape = experiment: Test C postemergence; format: in vivo, Brassica napus
Outline: as §1

waterhemp = experiment: Test C postemergence; format: in vivo, Amaranthus rudis
Outline: as §1

large (Lg) crabgrass = experiment: Test C postemergence; format: in vivo, Digitaria sanguinalis; settings: for Crabgrass, Large plant response rating / Plant response rating, Crabgrass, Large: scale 0 to 100 (0 no effect, 100 complete control)
Outline: as §1

johnsongrass [4] = experiment: Test C postemergence; format: in vivo, Sorghum halepense; settings: for Johnsongrass plant response rating / Plant response rating, Johnsongrass: scale 0 to 100 (0 no effect, 100 complete control)
Outline: as §1

giant foxtail [5] = experiment: Test A postemergence; format: in vivo, Setaria faberii
Outline: as §2

blackgrass = experiment: Test C preemergence; format: in vivo, Alopecurus myosuroides; settings: for Blackgrass plant response rating: preemergence; for Plant response rating, Blackgrass: Preemergence, 31 g ai/ha, scale 0 to 100, 0 no effect, 100 complete control
Outline: as §1

pigweed [6] = experiment: Test A preemergence; format: in vivo, Amaranthus retroflexus; settings: for Pigweed plant response rating: 0 to 100 scale, 0 no effect, 100 complete control, approx. 10 days
Outline: as §2

[7] = 16 g ai/ha, scale 0 to 100 (0 no effect, 100 complete control)
[8] = 62 g ai/ha, scale 0 (no effect) to 100 (complete control)
[9] = 125 g ai/ha, scale 0 (no effect) to 100 (complete control)
[10] = 1000 g ai/ha, 0 to 100 scale, 0 no effect, 100 complete control
[11] = 16 g ai/ha, postemergence, 0 is no effect, 100 is complete control
[12] = 31 g ai/ha, postemergence, visual rating, scale 0 to 100 (0 no effect, 100 complete control), 13 to 15 days
[13] = 125 g ai/ha, postemergence, visual rating, scale 0 to 100 (0 no effect, 100 complete control)
[14] = Postemergence, 62 g ai/ha, scale 0 to 100 (0 no effect, 100 complete control)
[15] = 31 g ai/ha, postemergence, visual rating, 13 to 15 days
[16] = 125 g ai/ha, postemergence, visual rating
[17] = Preemergence, 31 g ai/ha, scale 0 to 100, 0 no effect, 100 complete control
[18] = 125 g ai/ha, 0 to 100 scale where 0 is no effect and 100 is complete control
[19] = 500 g ai/ha, 0 to 100 scale where 0 is no effect and 100 is complete control
[20] = Postemergence, 31 g ai/ha, scale 0 to 100 (0 no effect, 100 complete control), 13 to 15 days
[21] = 16 g ai/ha, postemergence, visual rating, 13 to 15 days
[22] = Postemergence, 31 g ai/ha, 13 to 15 days

## FCc1cn(-c2c(F)cccc2Oc2ncc(Cl)cn2)nn1 [Compound 154]
Johnsongrass [1]; [7]
  Johnsongrass plant response rating: 0
Johnsongrass [1]; [8]
  Johnsongrass plant response rating: 40
Johnsongrass [1]; [9]
  Johnsongrass plant response rating: 85
ragweed; [7]
  Ragweed plant response rating: 75
ragweed; [8]
  Ragweed plant response rating: 95
ragweed; [9]
  Ragweed plant response rating: 90
Pigweed [2]; [10]
  Plant response rating, Pigweed: 100
velvetleaf; [11]
  Plant response rating (0 to 100), Velvetleaf: 25
velvetleaf; [12]
  Velvetleaf plant response rating: 45
velvetleaf; [13]
  Plant response rating, Velvetleaf: 80
velvetleaf; [14]
  Plant response rating, Velvetleaf: 70
corn; [11]
  Plant response rating (0 to 100), Corn: 0
corn; [15]
  Corn plant response rating: 0
corn; [16]
  Plant response rating, Corn: 0
corn; Postemergence, 62 g ai/ha
  Plant response rating, Corn: 0
Giant foxtail [3]; [7]
  Foxtail, Giant plant response rating: 5
Giant foxtail [3]; [8]
  Foxtail, Giant plant response rating: 85
Giant foxtail [3]; [9]
  Foxtail, Giant plant response rating: 100
Giant foxtail [3]
  Plant response rating, Foxtail, Giant: 70
Oilseed rape; [11]
  Plant response rating (0 to 100), Oilseed Rape: 40
Oilseed rape; [12]
  Oilseed Rape plant response rating: 50
Oilseed rape; [13]
  Plant response rating, Oilseed Rape: 80
Oilseed rape; [14]
  Plant response rating, Oilseed Rape: 50
waterhemp; [11]
  Plant response rating (0 to 100), Waterhemp: 5
waterhemp; [12]
  Waterhemp plant response rating: 60
waterhemp; [13]
  Plant response rating, Waterhemp: 70
waterhemp; [14]
  Plant response rating, Waterhemp: 65
Large (Lg) crabgrass; [11]
  Plant response rating (0 to 100), Crabgrass, Large: 5
Large (Lg) crabgrass; [15]
  Crabgrass, Large plant response rating: 10
Large (Lg) crabgrass; [16]
  Plant response rating, Crabgrass, Large: 10
Large (Lg) crabgrass; Postemergence, 62 g ai/ha
  Plant response rating, Crabgrass, Large: 10
Johnsongrass [4]; [11]
  Plant response rating (0 to 100), Johnsongrass: 0
Johnsongrass [4]; [15]
  Johnsongrass plant response rating: 0
Johnsongrass [4]; [16]
  Plant response rating, Johnsongrass: 5
Johnsongrass [4]; Postemergence, 62 g ai/ha
  Plant response rating, Johnsongrass: 0
Giant foxtail [5]; [10]
  Plant response rating, Foxtail, Giant: 100
blackgrass; [7]
  Blackgrass plant response rating: 0
blackgrass; [8]
  Blackgrass plant response rating: 20
blackgrass; [9]
  Blackgrass plant response rating: 90
blackgrass
  Plant response rating, Blackgrass: 10
Pigweed [6]; 1000 g ai/ha
  Pigweed plant response rating: 100

## CCOc1cnn(-c2c(C#N)cccc2Oc2ncc(F)cn2)c1 [Compound 89]
Johnsongrass [1]; [7]
  Johnsongrass plant response rating: 0
Johnsongrass [1]; [8]
  Johnsongrass plant response rating: 20
Johnsongrass [1]; [9]
  Johnsongrass plant response rating: 75
Johnsongrass [1]; [17]
  Plant response rating, Johnsongrass: 0
ragweed; [7]
  Ragweed plant response rating: 40
ragweed; [8]
  Ragweed plant response rating: 75
ragweed; [9]
  Ragweed plant response rating: 100
ragweed; [17]
  Plant response rating, Ragweed: 55
Pigweed [2]; [18]
  Plant response rating, Pigweed: 90
Pigweed [2]; [19]
  Plant response rating, Pigweed: 100
velvetleaf; 125 g ai/ha, postemergence
  Plant response rating (0 to 100), Velvetleaf: 40
velvetleaf; [20]
  Plant response rating, Velvetleaf: 15
velvetleaf; [14]
  Plant response rating, Velvetleaf: 25
corn; [21]
  Corn plant response rating: 5
corn; 125 g ai/ha, postemergence
  Plant response rating (0 to 100), Corn: 5
corn; [22]
  Plant response rating, Corn: 5
corn; Postemergence, 62 g ai/ha
  Plant response rating, Corn: 5
Giant foxtail [3]; [7]
  Foxtail, Giant plant response rating: 5
Giant foxtail [3]; [8]
  Foxtail, Giant plant response rating: 100
Giant foxtail [3]; [9]
  Foxtail, Giant plant response rating: 100
Giant foxtail [3]
  Plant response rating, Foxtail, Giant: 35
Oilseed rape; 125 g ai/ha, postemergence
  Plant response rating (0 to 100), Oilseed Rape: 60
Oilseed rape; [20]
  Plant response rating, Oilseed Rape: 25
Oilseed rape; [14]
  Plant response rating, Oilseed Rape: 55
waterhemp; 125 g ai/ha, postemergence
  Plant response rating (0 to 100), Waterhemp: 60
waterhemp; [20]
  Plant response rating, Waterhemp: 40
waterhemp; [14]
  Plant response rating, Waterhemp: 30
Large (Lg) crabgrass; [21]
  Crabgrass, Large plant response rating: 5
Large (Lg) crabgrass; 125 g ai/ha, postemergence
  Plant response rating (0 to 100), Crabgrass, Large: 5
Large (Lg) crabgrass; [22]
  Plant response rating, Crabgrass, Large: 5
Large (Lg) crabgrass; Postemergence, 62 g ai/ha
  Plant response rating, Crabgrass, Large: 5
Johnsongrass [4]; [21]
  Johnsongrass plant response rating: 0
Johnsongrass [4]; 125 g ai/ha, postemergence
  Plant response rating (0 to 100), Johnsongrass: 5
Johnsongrass [4]; [22]
  Plant response rating, Johnsongrass: 5
Johnsongrass [4]; Postemergence, 62 g ai/ha
  Plant response rating, Johnsongrass: 5
Giant foxtail [5]; [18]
  Plant response rating, Foxtail, Giant: 80
Giant foxtail [5]; [19]
  Plant response rating, Foxtail, Giant: 90
blackgrass; [7]
  Blackgrass plant response rating: 0
blackgrass; [8]
  Blackgrass plant response rating: 5
blackgrass; [9]
  Blackgrass plant response rating: 50
blackgrass
  Plant response rating, Blackgrass: 0
Pigweed [6]; [18]
  Plant response rating, Pigweed: 90
Pigweed [6]; 500 g ai/ha
  Pigweed plant response rating: 100
